Where two headings read alike, the source gives them in different places.
How the values were obtained:
[1] = system: ischemic-injured porcine jejunum; assay: Recovery of barrier function (transepithelial resistance, TER) in ischemic-injured porcine jejunum mucosa ex vivo in Ussing chambers; format: cell-based, Yorkshire-cross pigs; details: fragment added together with larazotide
Description: Intestinal epithelial tight junction integrity is crucial to maintain an intact intestinal barrier against noxious luminal contents. […] Porcine mucosa injured by ischemia/reperfusion injury is abnormally permeable until interepithelial tight junctions have re-assembled.
(§1) Yorkshire-cross pigs 6-8-weeks-of-age were anesthetized, followed by midline laparotomy and creation of a series of 10 cm intestinal loops commencing proximal to the ileum by ligating the intestinal lumen. The local mesenteric vasculature was ligated to select treatment loops for 45-min, whereas other loops were left as non-ischemic controls. Loops were subsequently resected, and the mucosal tissues were stripped in oxygenated (95% O2/5% CO2) Ringers from the muscle layers in preparation for ex vivo incubation in Ussing chambers. Tissues were monitored by measuring transepithelial resistance (TER) for 240-min. At the end of a 240-min recovery period, tissues were taken for histology and immunofluorescence evaluation of tight junction proteins.

tight junction = assay: Activity as tight junction regulators (larazotide fragments, alone or mixed with larazotide); details: for activity as tight junction regulators: fragment alone
Description: In various embodiments, the methods of the invention comprise treating a subject with larazotide or derivative thereof. Larazotide is a peptide agent that promotes tight junction integrity in the gastrointestinal tract (GI). […] See US 2016/0022760, which is hereby incorporated by reference in its entirety. […] In accordance with this disclosure, it is believed that an aminopeptidase located within the brush borders of the lumen surface may create larazotide-derived fragments, including fragments missing N-terminal glycine residues.

claudin 2 = details: tissues treated with larazotide
Description: as §1

occludin = details: tissues treated with larazotide
Description: as §1

celiac disease symptoms = details: clinical trials, cited from earlier work

Substance | effect of larazotide in the presence of the fragment [1] | activity as tight junction regulators (tight junction) | activity of full length larazotide when mixed with the two fragments (tight junction) | pore (leak)-forming tight junction protein claudin 2 (claudin 2) | localization of the tight junction sealing protein occludin (occludin) | reducing celiac disease symptoms (celiac disease symptoms; higher doses (e.g., 1 mg and 2 mg doses)) | reducing celiac disease symptoms (celiac disease symptoms; lower doses (e.g., 0.5 mg dose))
GVLVQPG [larazotide-derived fragment missing an N-terminal glycine residue] | blocked | inactive | completely abolished | – | – | – | –
Gly Gly Val Leu Val Gin Pro Gly [larazotide] | – | – | – | reductions | increased localization | attenuation of activity, or no activity at all | benefit at reducing celiac disease symptoms
VLVQPG [larazotide-derived fragment missing N-terminal glycine residues] | blocked | inactive | completely abolished | – | – | – | –

— patent US11058902B2, “Compositions and methods for treating disease associated with permeability of intestinal epithelium” (9 Meters Biopharma, Inc., priority 2017, dated 2021)
